The values that follow come from US20060004004A1, “Novel gamma secretase inhibitors” (Schering Corporation, priority 2004, published 2006).

For this experiment, the target named is T1, γ-secretase (Homo sapiens, UniProt P49768).
T1 construct: endogenous in cells; host or cells: membranes of 293 cells (T-REx, clone pTRE.15) with tetracycline-induced SPC99-Lon
The experiment in a line: Gamma secretase activity, membrane assay with Aβ 40 / Aβ 42 ECL immunoassay (Zhang et al.). It counts as biochemical. The text has this:
Antibodies W02, G2-10, and G2-11 were obtained from Dr. Konrad Beyreuther (University of Heidelberg, Heidelberg, Germany). W02 recognizes residues 5-8 of Aβ peptide, while G2-10 and G2-11 recognize the specific C-terminal structure of Aβ 40 and Aβ 42, respectively. Biotin-4G8 was purchased from Senetec (St. Louis, Mo.). All tissue culture reagents used in this work were from Life Technologies, Inc., unless otherwise specified. Pepstatin A was purchased from Roche Molecular Biochemicals; DFK167 was from Enzyme Systems Products (Livermore, Calif.).
Upon insertion into the membrane, the 17 amino acid signal peptide is processed, leaving an additional leucine at the N-terminus of Aβ. SPC99-lon was cloned into the pcDNA4/TO vector (Invitrogen) and transfected into 293 cells stably transfected with pcDNA6/TR, which is provided in the T-REX system (Invitrogen). The transfected cells were selected in Dulbecco's modified Eagle's media (DMEM) supplemented with 10% fetal bovine serum, 100 units/mL penicillin, 100 µg/mL streptomycin, 250 µg/mL zeocin, and 5 µg/mL blasticidin (Invitrogen). Colonies were screened for Aβ production by inducing C99 expression with […] tetracycline for 16-20 h and analyzing conditioned media with a sandwich immunoassay (see below). One of the clones, designated as pTRE.15, was used in these studies.
C99 expression in cells was induced with […] tetracycline for 20 h. The cells were pretreated with […] 12-myristate 13-acetate (PMA) and […] brefeldin A (BFA) for 5-6 h at 37° C. before harvesting. The cells were washed 3 times with cold phosphate-buffered saline (PBS) and harvested in buffer A containing 20 mM Hepes (pH 7.5), 250 mM sucrose, 50 mM KCl, 2 mM EDTA, 2 mM EGTA, and Complete protease inhibitor tablets (Roche Molecular Biochemicals). The cell pellets were flash-frozen in liquid nitrogen and stored at −70° C. before use.
To make membranes, the cells were resuspended in buffer A and lysed in a nitrogen bomb at 600 psi. The cell lysate was centrifuged at 1500 g for 10 min to remove nuclei and large cell debris. The supernatant was centrifuged at 100000 g for 1 h. The membrane pellet was resuspended in buffer A plus 0.5 M NaCl, and the membranes were collected by centrifugation at 200000 g for 1 h. The salt-washed membrane pellet was washed again in buffer A and centrifuged at 100000 g for 1 h. The final membrane pellet was resuspended in a small volume of buffer A using a Teflon-glass homogenizer. The protein concentration was determined, and membrane aliquots were flash-frozen in liquid nitrogen and stored at −70° C.
γ-Secretase Reaction and Aβ Analysis To measure γ-secretase activity, membranes were incubated at 37° C. for 1 h in […] of buffer containing 20 mM Hepes (pH 7.0) and 2 mM EDTA. At the end of the incubation, Aβ 40 and Aβ 42 were measured using an electrochemiluminescence (ECL)-based immunoassay. Aβ 40 was identified with antibody pairs TAG-G2-10 and biotin-W02, while Aβ 42 was identified with TAG-G2-11 and biotin-4G8. The ECL signal was measured using an ECL-M8 instrument (IGEN International, Inc.) according to the manufacturer's instructions. The data presented were the means of the duplicate or triplicate measurements in each experiment.

The mark [1] stands for this setting: membranes of 293 cells expressing SPC99-Lon (clone pTRE.15), 37° C., 1 h, read-out: IC50 (μM), γ-secretase inhibitory activity.
The mark [2] stands for this setting: same membrane assay, ranges given as 'about', read-out: IC50 values within the range.

Where “and” joins values, the source holds several entries; their conditions need not be identical. Identical values can stand only once. Like-named read-outs stand apart in the source and are kept apart here.

A word on the IC50: it is the point on the concentration scale where inhibition reaches its midpoint.

For `O=C(CC1([C@@H]2CCC[C@H](c3cc(F)cc(F)c3)N2S(=O)(=O)c2ccc(Cl)cc2)CC1)N1CCN(CCO)CC1` [Example 1], the IC50 was 0.0028 µM under setting [1]; 0.001 to 0.2 µM and 0.001 to 0.02 µM under setting [2].

On to `O=C(CC1(C2CCCC(c3cc(F)cc(F)c3)N2S(=O)(=O)c2ccc(Cl)cc2)CC1)N1CCCCC1` (centres unmarked) [Example 2], for which the IC50 runs as follows: under setting [1], 0.0164 µM; under setting [2], 0.001 to 0.2 µM and 0.001 to 0.02 µM.

For `O=C(CC1(C2CCCC(c3cc(F)cc(F)c3)N2S(=O)(=O)c2ccc(Cl)cc2)CC1)N1CC[C@H](O)C1` (some centres unmarked) [Example 3], the IC50 is, setting by setting: under setting [1], 0.0132 µM; under setting [2], 0.001 to 0.2 µM and 0.001 to 0.02 µM.

With `O=C(CC1(C2CCCC(c3cc(F)cc(F)c3)N2S(=O)(=O)c2ccc(Cl)cc2)CC1)N1CCC(N2CCCCC2)CC1` (centres unmarked) [Example 4], the IC50 reads like this: under setting [1], 0.0014 µM; under setting [2], 0.001 to 0.2 µM and 0.001 to 0.02 µM.

With `O=C(CC1([C@H]2CCC[C@@H](c3cc(F)cc(F)c3)N2S(=O)(=O)c2ccc(Cl)cc2)CC1)N1CCC[C@H]1CO` [Example 5], the IC50 is 0.0196 µM under setting [1]; 0.001 to 0.2 µM and 0.001 to 0.02 µM under setting [2].

In the case of `O=C(CC1([C@H]2CCC[C@@H](c3cc(F)cc(F)c3)N2S(=O)(=O)c2ccc(Cl)cc2)CC1)N1CCCC1` [Example 6], the IC50 under setting [2] was 0.001 to 0.2 µM.

For `O=C(N1CCC[C@H]1CO)C1([C@H]2CCC[C@@H](c3cc(F)cc(F)c3)N2S(=O)(=O)c2ccc(Cl)cc2)CC1` [Example 7], the IC50 under setting [2] fell in the range of 0.001 to 0.2 µM.

As to `O=C(N1CCCC1)C1([C@H]2CCC[C@@H](c3cc(F)cc(F)c3)N2S(=O)(=O)c2ccc(Cl)cc2)CC1` [Example 8], under setting [2], the IC50 was 0.001 to 0.2 µM.

As to `O=C(N1CCC(N2CCCCC2)CC1)C1([C@H]2CCC[C@@H](c3cc(F)cc(F)c3)N2S(=O)(=O)c2ccc(Cl)cc2)CC1` [Example 9], under setting [2], the IC50 lay in the range of 0.001 to 0.2 µM.

As to `O=C(N1CCN(CCO)CC1)C1([C@H]2CCC[C@@H](c3cc(F)cc(F)c3)N2S(=O)(=O)c2ccc(Cl)cc2)CC1` [Example 10], under setting [2], the IC50 lay in the range of 0.001 to 0.2 µM.

On to `C[C@@H]1CN(CCO)CCN1C(=O)C1([C@H]2CCC[C@@H](c3cc(F)cc(F)c3)N2S(=O)(=O)c2ccc(Cl)cc2)CC1` [Example 11], for which, under setting [2], the IC50 fell in the range of 0.001 to 0.2 µM.

Take `O=C(N1C[C@@H](N2CCCCC2)C[C@@H]1CO)C1([C@H]2CCC[C@@H](c3cc(F)cc(F)c3)N2S(=O)(=O)c2ccc(Cl)cc2)CC1` [Example 17]: under setting [2], the IC50 was 0.001 to 0.2 µM.

Consider `O=S(=O)(CC1([C@@H]2CCC[C@H](c3cc(F)cc(F)c3)N2S(=O)(=O)c2ccc(Cl)cc2)CC1)N1CCC(N2CCCCC2)CC1` [Example 19], for which the IC50 under setting [1] was determined as 0.0119 µM; the IC50 under setting [2] is 0.001 to 0.2 µM and 0.001 to 0.02 µM.

Consider `O=S(=O)(CC1([C@H]2CCC[C@@H](c3cc(F)cc(F)c3)N2S(=O)(=O)c2ccc(Cl)cc2)CC1)N1CC[C@H](O)C1` [Example 20], for which the IC50 under setting [1] turned out to be 0.0151 µM; the IC50 under setting [2] was 0.001 to 0.2 µM and 0.001 to 0.02 µM.

As for `CN1CCN(S(=O)(=O)CC2([C@H]3CCC[C@@H](c4cc(F)cc(F)c4)N3S(=O)(=O)c3ccc(Cl)cc3)CC2)CC1` [Example 21], the IC50 runs as follows: under setting [1], 0.0117 µM; under setting [2], 0.001 to 0.2 µM and 0.001 to 0.02 µM.

For the molecule `O=S(=O)(CC1([C@H]2CCC[C@@H](c3cc(F)cc(F)c3)N2S(=O)(=O)c2ccc(Cl)cc2)CC1)N1CCC[C@H]1CO` [Example 22], the IC50 under setting [1] was 0.0164 µM; the IC50 under setting [2] was 0.001 to 0.2 µM and 0.001 to 0.02 µM.

In the case of `O=S(=O)(CC1([C@H]2CCC[C@@H](c3cc(F)cc(F)c3)N2S(=O)(=O)c2ccc(Cl)cc2)CC1)N1CCN(CCO)CC1` [Example 23], the IC50 is, setting by setting: under setting [1], 0.0124 µM; under setting [2], 0.001 to 0.2 µM and 0.001 to 0.02 µM.

For `O=S(=O)(CC1([C@H]2CCC[C@@H](c3cc(F)cc(F)c3)N2S(=O)(=O)c2ccc(Cl)cc2)CC1)N1CCC(N2CCOCC2)CC1` [Example 24], the IC50 was 0.0145 µM under setting [1]; 0.001 to 0.2 µM and 0.001 to 0.02 µM under setting [2].

Turning to `O=C(C(O)C1([C@H]2CCC[C@@H](c3cc(F)cc(F)c3)N2S(=O)(=O)c2ccc(Cl)cc2)CC1)N1CCC(N2CCCCC2)CC1` (some centres unmarked) [Example 25], the IC50 is, setting by setting: under setting [1], 0.0049 µM; under setting [2], 0.001 to 0.2 µM and 0.001 to 0.02 µM.

For `O=C(C(O)C1([C@H]2CCC[C@@H](c3cc(F)cc(F)c3)N2S(=O)(=O)c2ccc(Cl)cc2)CC1)N1CCC[C@H]1CO` (some centres unmarked) [Example 26], the IC50 under setting [2] was in the range of 0.001 to 0.2 µM.

Take `O=C(C(O)C1([C@H]2CCC[C@@H](c3cc(F)cc(F)c3)N2S(=O)(=O)c2ccc(Cl)cc2)CC1)N1CC[C@H](O)C1` (some centres unmarked) [Example 27]: under setting [2], the IC50 lay in the range of 0.001 to 0.2 µM.

In the case of `CCC1(OC)CC2CCC(C1)N2C(=O)C(O)C1([C@H]2CCC[C@@H](c3cc(F)cc(F)c3)N2S(=O)(=O)c2ccc(Cl)cc2)CC1` (some centres unmarked) [Example 28], under setting [2], the IC50 is 0.001 to 0.2 µM and 0.001 to 0.02 µM.

In the case of `CCC1(O)CC2CCC(C1)N2C(=O)C(O)C1([C@H]2CCC[C@@H](c3cc(F)cc(F)c3)N2S(=O)(=O)c2ccc(Cl)cc2)CC1` (some centres unmarked) [Example 29], the IC50 reads like this: under setting [1], 0.0068 µM; under setting [2], 0.001 to 0.2 µM and 0.001 to 0.02 µM.

For `O=C(CC1([C@H]2CCC[C@@H](C3CC3)N2S(=O)(=O)c2ccc(Cl)cc2)CC1)N1CCN2CCCC2C1` (some centres unmarked) [Example 44], the IC50 under setting [2] fell in the range of 0.001 to 0.2 µM.

On to `O=C(CC1([C@H]2C[C@@H](O)C[C@@H](C3CC3)N2S(=O)(=O)c2ccc(Cl)cc2)CC1)N1CCC(N2CCCCC2)CC1` [Example 46], for which the IC50 under setting [2] was 0.001 to 0.02 µM and 0.001 to 0.2 µM.

On to `O=C(CC1([C@H]2C[C@@H](O)C[C@@H](C3CC3)N2S(=O)(=O)c2ccc(Cl)cc2)CC1)N1CC[C@@H](O)C1` [Example 47], for which the IC50 under setting [2] lay within 0.001 to 0.2 µM.

Take `CCC1(O)CC2CCC(C1)N2C(=O)CC1([C@H]2C[C@@H](O)C[C@@H](C3CC3)N2S(=O)(=O)c2ccc(Cl)cc2)CC1` (some centres unmarked) [Example 48]: the IC50 is 0.0048 µM under setting [1]; 0.001 to 0.02 µM and 0.001 to 0.2 µM under setting [2].
